# Measured values reported in article PMC9535023, “Inhibition of phospholipase D1 induces immunogenic cell death and potentiates cancer immunotherapy in colorectal cancer” (Experimental & Molecular Medicine, 2022).
# How the values were obtained:
# PLD = PLD activity assay in HCT 116 cells; format: cell-based; conditions: at 10 μM (Fig. 1c)
# Protocol: Cells were labeled with [H^3] myristic acid, and PLD activity was assessed by measuring the formation of [H^3] phosphatidylbutanol, which is the product of PLD-mediated transphosphatidylation, in the presence of 1-butanol, as previously described.
# DLD1 cells [1] = assay: Apoptosis assay (annexin V flow cytometry), DLD1; format: cell-based
# Protocol: For cell cycle analysis, the cells were treated with Α3373 or 5-FU. The cells were labeled with 10 μΜ bromodeoxyuridine (BrdU) for 2 h. Subsequently, the cells were stained with 7-aminoactinomycin D (7-AAD, Invitrogen) and a fluorescein isothiocyanate (FITC)-conjugated anti-BrdU antibody (Invitrogen). Apoptotic cells were detected using an Annexin V-FITC Apoptosis Detection Kit (BD Biosciences). The cells were analyzed using BD FACSAria III (BD Biosciences), and data analysis was performed using FlowJo v10.0 (BD Biosciences).
# HCT 116 cells = assay: Immunoblotting of β-catenin and its target genes; format: cell-based; conditions: time- and dose-dependent, 1% serum
# Protocol: As previously described, lysates from cells or colorectal cancer (CRC) tissues were analyzed by immunoprecipitation, and/or Western blotting was performed as described previously. The antibodies used are listed in Supplementary Table 5. A polyclonal anti-PLD antibody that recognizes both PLD1 and PLD2 was generated, as previously described. The use of human CRC tissue samples was approved by the Institutional Review Board of Pusan National University, Korea (PNU IRB/2011-6).
# HCT116 cells = assay: miR-4496 promoter and β-catenin 3′-UTR luciferase reporters; format: cell-based
# HEK293 cells = assay: TCF transactivation in HEK293 cells; format: cell-based; conditions: Wnt3a 150 ng/mL
# DLD1 cells [2] = assay: Flow cytometry of CD44 and CD133; format: cell-based; conditions: dose-dependent, mean fluorescence intensity
# DLD1 cells [3] = assay: Sphere formation assay; format: cell-based; conditions: limiting dilution assays
# Protocol: DLD1 cells were cultured in DMEM/F-12 with epidermal growth factor (20 ng/mL), basic fibroblast growth factor (20 ng/mL), and B27 supplements in noncoated dishes. For serial passaging, the sphere cells were dissociated into single cells with Accutase (Invitrogen) once every 4–7 days and incubated. After the secondary generation, the DLD1 sphere cells were used for the experiments. […] The cells were fixed with 4% paraformaldehyde, and sphere formation was calculated from 10 positions in each well by an Olympus BX53 microscope and cellSens image acquisition software (Olympus).
# MC38-GFP-Luc cells = assay: Colon cancer orthotopic model (MC38-GFP-Luc in cecum); format: in vivo, mouse
# Protocol: GFP-luciferase expressing MC38 murine CRC (MC38-GFP-Luc) cells were cocultured with bone marrow-derived macrophages (BMDMs). After 48 h, the macrophages were isolated and incubated with naïve T cells from the splenocytes of wild-type mice to generate CD8^+ T cells. The activated CD8^+ T cells were sorted using BD FACSAria III, added to wells containing MC38-GFP-Luc cells and titrated to effector cells (E) and the target cell (T) ratio (E/T ratio). Four hours later, CD8^+ T-cell-mediated killing of MC38-GFP-Luc cancer cells in each well was monitored using a luciferase-based bioluminescence imaging system.
# Supplementary materials and methods […]
# A colon cancer orthotropic model was established using 6- weeks-old C57BL/6 male mice.
# Mice were administered a single IP injection of 2,2,2-Tribromoethanol (Avertin, Sigma - aldrich), an an esthetic . T he abdomen was shaved and the surgi cal site was draped in a sterile […]
# manner. The incision was extended to 2–3 cm, and the cecum was exposed. 2 × 10^5 MC38-GFP-Luciferas e cells were suspended in 50 µL PBS and injected into the cecum. Seven days after cell injection, 10 mg/kg A3373 was orally administered to the mice daily for 4 weeks. […]
# All mice wer e housed at 2 5°C under a 12:12 hou rs light/dark cycle. All animal procedu res were performed in accordance with the institutional guidelines for animal research and were approved by the Institutional Animal Care and Use Committee of Yonsei University (IACUC- […]
# In a colon cancer orthotropic model, tumor-infiltrating lymphocytes (TILs) were isolated from the tumor tissue 30 days after cell injection. Tumors wer e en zymatically di ssociated in RPMI media containing 10% FBS, 200 mg/mL collagenase IV (Sigma- Aldrich), 20 mg/mL hyaluronidase (Sigma-Al drich), and 20 mg/mL DNase I (Sigma Aldrich) at 37 ℃ with stirring.
# After 20 minutes of incubation, 0.1 M EDTA was added to prevent clumping. Cells were filtered through a 40 µm nylon mesh, single-cell suspensions were counted and used for the experiments. Finally, the TILs were resuspended in PBS containing 1% FBS. For the distribution of immune cells, anti- mouse CD45 microbeads were us ed according to the manufacturer’s instructions (Miltenyi Biotech). Isolated tumor cells were cultured for one passage to change the immunocompromised phenotype and assessed using flow cytometry.
# Splenocytes were isolat ed from mouse spleens, seeded at 5× 10^6 cells, and stimulated with 10 µg/mL MC38 GFP-Luciferase cell lysates. For intracellular cytokine staining, cells were […]
# MC38 cells = assay: MC38 syngeneic tumor model; format: in vivo, mouse
# Protocol: manner. The incision was extended to 2–3 cm, and the cecum was exposed. 2 × 10^5 MC38-GFP-Luciferas e cells were suspended in 50 µL PBS and injected into the cecum. Seven days after cell injection, 10 mg/kg A3373 was orally administered to the mice daily for 4 weeks.
# A colon can cer syngenei c model was established using 6- weeks-old C57B L/6 male mice. 2 × 10^5 MC38 cells were suspended in 50µ l PBS and subcutaneously injected into the flanks of the mice. After 7 days of cell injection, mice were randomized into four groups and all groups were treated as follows for 2 weeks: vehicle grou p, mice were IP administered vehicle every day; A3373 group, mice were IP administrated with 10 mg/kg A3373 every day; α PD-L1 antibody group, mice were IP administrated with 5 mg/kg anti-mouse PD-L1 (BioXcell) eve ry two days; A3373 + αPD-L1 antibody group, mice received A3373 (10 mg/kg) daily with anti - mouse PD-L1 (5 mg/kg) every 2 days. Tumor volume was measured in MC38 cells subcutaneous injected mice every 2 days after 7 days of cell injection. External tumor measurements were made using precision calipers, and tumor volume (TV) was calcul ated according to the following formula: TV = (W × L2)/2 (W = width and L = l ength).
# . All animal procedu res were performed in accordance with the institutional guidelines for animal research and were approved by the Institutional Animal Care and Use Committee of Yonsei University (IACUC- […]
# In a colon cancer orthotropic model, tumor-infiltrating lymphocytes (TILs) were isolated from the tumor tissue 30 days after cell injection. […]
# After 20 minutes of incubation, 0.1 M EDTA was added to prevent clumping. Cells were filtered through a 40 µm nylon mesh, single-cell suspensions were counted and used for the experiments. […] Isolated tumor cells were cultured for one passage to change the immunocompromised phenotype and assessed using flow cytometry. […]
# [4] = mesenteric lymph nodes, vs vehicle
compound,measurement,setting,value
O=C(Nc1cc(C(F)(F)F)cc(C(F)(F)F)c1)c1cc2cc(F)ccc2[nH]1 [Compound A3373],PLD activity remained,PLD,20.6%
same,"apoptosis of CRC cells, in words",DLD1 cells [1],significantly promoted the apoptosis of CRC cells alone
same,"protein levels of β-catenin and its target genes (PLD1, CD133, CD44, c-Myc, cyclin D1)",HCT 116 cells,greatly reduced the protein levels of β-catenin and its target genes
same,luciferase activity of the β-catenin 3′-UTR reporter,HCT116 cells,significantly suppressed the luciferase activity
same,promoter activity of miR-4496,HCT116 cells,increased the promoter activity of miR-4496
same,Wnt3a- and β-catenin-induced TCF transactivation,HEK293 cells,significantly decreased Wnt3a- and β-catenin-induced TCF transactivation
same,expression of CD44 and CD133,DLD1 cells [2],significantly decreased the expression of CD44 and CD133
same,sphere-forming capacity,DLD1 cells [3],significantly decreased the sphere-forming capacity
same,active caspase-3 and Ki67 in tumor tissues (IHC),MC38-GFP-Luc cells; 10 mg/kg every day for 4 weeks,increased levels of active caspase-3 and reduced levels of Ki67
same,mortality and tumor weight,"MC38-GFP-Luc cells; 10 mg/kg every day for 4 weeks, vs vehicle",significant reduction in mortality and tumor weight
same,"CD8+ T-cell-mediated killing, luciferase activity","MC38-GFP-Luc cells; MC38-GFP-Luc cells derived from treated mice, vs vehicle",significantly lower luciferase activity
same,"population of GFP+CD11b+ BMDMs, in words",MC38-GFP-Luc cells; coculture with MC38-GFP-Luc cells isolated from tumors,significantly increased the population of GFP^+CD11b^+ BMDMs
same,CD107a+ granzyme B+ and FasL+IFNγ+ CD8+ T cells,"MC38-GFP-Luc cells; mesenteric lymph nodes restimulated with MC38-GFP-Luc lysates, vs vehicle",increased population of CD107a^+ granzyme B^+ and FasL^+IFNγ^+ CD8^+ T cells
same,Foxp3+ cells in the CD4+ TCRβ+ gate,MC38-GFP-Luc cells; [4],decreased population of Foxp3^+ cells
same,IFNγ+ and IL17a+ in CD4+ T cells,MC38-GFP-Luc cells; [4],significantly increased the population of IFNγ^+ and IL17a^+ in CD4^+ T cells
same,tumor formation,MC38 cells; A3373 10 mg/kg and/or αPD-L1,significantly decreased tumor formation
same,"CD8+ T-cell-mediated killing of MC38-GFP-Luc cells, luciferase activity","MC38 cells; CD8+ T cells from treated tumor-bearing mice, increasing E/T ratio",significant reduction in luciferase activity
same,percentage of immune cells (CD45+ cells) in total cells,"MC38 cells; tumors at maximum volume, flow cytometry, vehicle ~20%",~50%
